Like-named read-outs stand apart in the source and are kept apart here. *1 amine or outer side, *2 acyl side, *3 side chain or, on linkers, in order; H or OH if unused. Where a SMILES comes first, the peptide text is derived from it. Bridges are numbered along the chain shown (N, C = ends). Roman numbers before positions name the chains, in order. [ ]: non-standard residue; d: D form. The star is where a group is joined. ξ: configuration not given here. TATA = O=C(CC[*:1])N1CN(C(=O)CC[*:2])CN(C(=O)CC[*:3])C1; Dolaproine = CO[C@@H]([C@@H]1CCCN1)[C@@H](C)C(=O)O; X1 = CC[C@H](C)C(C(CC(=O)[*:2])OC)N(C)[*:1]; 1Nal = N[C@@H](Cc1cccc2ccccc12)C(=O)O; X3 = O=C(CCCC(=O)[*:2])NCCC(=O)[*:1]; PABC = O=C(OCc1ccc(N[*:1])cc1)[*:2]; Hyp = O=C(O)[C@@H]1C[C@@H](O)CN1; hArg = N=C(N)NCCCC[C@H](N)C(=O)O; Cit = NC(=O)NCCC[C@H](N)C(=O)O; X2 = CC(N*)[C@@H](O)c1ccccc1; ξNMeV = CNC(C(=O)O)C(C)C; ξV = CC(C)C(N)C(=O)O; Sar = CNCC(=O)O
Experiments:
MDA-MB-468 xenograft = assay: Example 4: in vivo efficacy in MDA-MB-468 xenograft (breast cancer model) in Balb/c nude mice; design: species or system Mus Musculus; conditions: mouse, in vivo
MDA-MB-468 cell line = assay: Example 11: HCS assay, Nectin-4 BDC binding study; type: cell-based
Experimental: HCS assay was used in Nectin-4 BDC binding study. Cells were incubated with test agent and then washed. Detection was by a fluorescent antibody to MMAE.

Panc2.13 xenograft = assay: Example 3: in vivo efficacy in Panc2.13 xenograft (pancreatic cancer model) in Balb/c nude mice; design: species or system Mus Musculus
human Nectin-4 = target: T1, human Nectin-4 (Homo sapiens, UniProt Q96NY8); assay: Nectin-4 Biacore SPR binding assay
T1 sequence (Q96NY8 32-349): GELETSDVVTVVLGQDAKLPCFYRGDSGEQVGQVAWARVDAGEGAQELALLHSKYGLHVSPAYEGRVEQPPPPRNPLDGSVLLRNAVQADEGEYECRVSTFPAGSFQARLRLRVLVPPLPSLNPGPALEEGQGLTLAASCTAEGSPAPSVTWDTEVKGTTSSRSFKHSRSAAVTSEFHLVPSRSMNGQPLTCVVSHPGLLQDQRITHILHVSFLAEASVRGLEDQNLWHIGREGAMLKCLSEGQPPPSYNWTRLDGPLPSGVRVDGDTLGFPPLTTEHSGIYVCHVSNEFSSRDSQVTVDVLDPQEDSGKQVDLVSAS
Experimental: Biacore experiments were performed to determine ka (M^−1 s^−1), kd (s^−1), KD (nM) values of monomeric peptides binding to human Necin-4 protein (obtained from Charles River).
Human Nectin-4 (residues Gly32-Ser349; NCBI RefSeq: NP_112178.2) with a gp67 signal sequence and C-terminal FLAG tag was cloned into pFastbac-1 and baculovirus made using standard Bac-to-Bac™ protocols (Life Technologies). Sf21 cells at 1×10^6 ml^−1 in Excell-420 medium (Sigma) at 27° C. were infected at an MOI of 2 with a P1 virus stock and the supernatant harvested at 72 hours. […] The protein was eluted with 100 μg/ml FLAG peptide. The eluted protein was concentrated to 2 ml and loaded onto an S-200 Superdex column (GE Healthcare) in PBS at 1 ml/min. 2 ml fractions were collected and the fractions containing Nectin-4 protein were concentrated to 16 mg/ml.
The protein was extensively desalted to remove uncoupled biotin using spin columns into PBS.
For analysis of peptide binding, a Biacore 3000 instrument was used utilising a CM5 chip (GE Healthcare). Streptavidin was immobilized on the chip using standard amine-coupling chemistry at 25° C. with HBS-N (10 mM HEPES, 0.15 M NaCl, pH 7.4) as the running buffer. Briefly, the carboxymethyl dextran surface was activated with a 7 minute injection of a 1:1 ratio of 0.4 M 1-ethyl-3-(3-dimethylaminopropyl) carbodiimide hydrochloride (EDC)/0.1 M N-hydroxy succinimide (NHS) at a flow rate of 10 μl/min. For capture of streptavidin, the protein was diluted to 0.2 mg/ml in 10 mM sodium acetate (pH 4.5) and captured by injecting 120 μl of streptavidin onto the activated chip surface. Residual activated groups were blocked with a 7 minute injection of 1 M ethanolamine (pH 8.5) and biotinylated Nectin-4 captured to a level of 1,200-1,800 RU. Buffer was changed to PBS/0.05% Tween 20 and a dilution series of the peptides was prepared in this buffer with a final DMSO concentration of 0.5%. The top peptide concentration was 100 nM with 6 further 2-fold dilutions. The SPR analysis was run at 25° C. at a flow rate of 50 μl/min with 60 seconds association and dissociation between 400 and 1,200 seconds depending upon the individual peptide. Data were corrected for DMSO excluded volume effects. All data were double-referenced for blank injections and reference surface using standard processing procedures and data processing and kinetic fitting were performed using Scrubber software, version 2.0c (BioLogic Software). Data were fitted using simple 1:1 binding model allowing for mass transport effects where appropriate.

CTG-1171 = conditions: qw iv
Text: (§1) To evaluate the antitumor activity of Bicycle Agent in Low Passage Champions TumorGraft Models of Human Breast, Esophageal, and Bladder Cancer in Immunocompromised mice.
(§2) • Species: Mouse • Strain: Athymic Nude-Foxn1nu (Immune-compromised) • Source: Envigo: Indianapolis, Indiana • Gender: Female • Target age at initiation of dosing: At least 6-8 weeks of age • Target weight at initiation of dosing: At least 18 grams • Acclimation period: 3 days Experimental Design
(§3) Pre-study Animals: When sufficient stock animals reach 1.0-1.5 cm^3, tumors will be harvested for re-implantation into pre-study animals. Pre-study animals will be implanted unilaterally on the left flank with tumor fragments harvested from stock animals. Each animal is implanted from a specific passage lot and documented.
(§4) Study Animals: Pre-study tumor volumes are recorded for each experiment beginning seven to ten days after implantation. When tumors reach an average tumor volume of 150-300 mm^3, animals will be matched by tumor volume into treatment or control groups to be used for dosing and dosing initiated on Day 0.

CTG-0896 = conditions: qw iv
Text: as §1, §2, §3, §4

CTG-1771 = conditions: qw iv
Text: as §1, §2, §3, §4

CTG-1106 = conditions: qw iv
Text: as §1, §2, §3, §4

LU-01-0007 PDX = assay: Example 12: in vivo efficacy in LU-01-0007 PDX model of lung cancer; design: species or system Mus Musculus
Experimental: Animals were checked daily for any effects of tumor growth and treatments on normal behavior such as mobility, food and water consumption (by looking only), body weight gain/loss, eye/hair matting and any other abnormal effect as stated in the protocol. Death and observed clinical signs were recorded on the basis of the numbers of animals within each subset.

Question: For `CC[C@H](C)C(C(CC(=O)N1CCC[C@H]1[C@H](OC)[C@@H](C)C(=O)NC(C)[C@@H](O)c1ccccc1)OC)N(C)C(=O)[C@@H](NC(=O)C(C(C)C)N(C)C(=O)OCc1ccc(NC(=O)[C@H](CCCNC(N)=O)NC(=O)C(NC(=O)CCCC(=O)NCCC(=O)N(C)CC(=O)N(C)CC(=O)N(C)CC(=O)N(C)CC(=O)N(C)CC(=O)N(C)CC(=O)N(C)CC(=O)N(C)CC(=O)N(C)CC(=O)N(C)CC(=O)N[C@H]2CSCCC(=O)N3CN4CN(C3)C(=O)CCSC[C@H](NC(=O)[C@@H](CC(=O)O)NC(=O)[C@H](Cc3cccc5ccccc35)NC(=O)[C@@H]3CCCN3C2=O)C(=O)N[C@@H](CCSC)C(=O)N[C@@H](CCCCNC(=N)N)C(=O)N[C@@H](CC(=O)O)C(=O)N[C@@H](Cc2c[nH]c3ccccc23)C(=O)N[C@@H](CO)C(=O)N[C@@H]([C@@H](C)O)C(=O)N2CCC[C@H]2C(=O)N2C[C@H](O)C[C@H]2C(=O)N[C@@H](Cc2c[nH]c3ccccc23)C(=O)N[C@H](C(N)=O)CSCCC4=O)C(C)C)cc1)C(C)C` (stereo partly drawn) [BCY8245, MMAE-PABC-Cit-Val-Glutaryl-BCY8234] (I: [Sar][Sar][Sar][Sar][Sar][Sar][Sar][Sar][Sar][Sar]CP[1Nal][dD]CM[hArg]DWSTP[Hyp]WC-NH2 / II: [ξV][Cit][PABC][ξNMeV]V[X1][Dolaproine]-X2; linker I:11-I:15-I:25 via TATA; linker I:N-II:N via X3), which “anti-tumour activity (in words)” value (MDA-MB-468 xenograft) is on record?
Answer: Its value is “good anti-tumour activity”.

Question: What about the “Bmax (in words)” value (MDA-MB-468 cell line) of the same compound?
Answer: The value was “lower than for the Nectin-4 ADC”.

Question: And the “binding affinity on MDA-MB-468 cell line (in words)” value (MDA-MB-468 cell line)?
Answer: The value was “single digit nanomolar affinity”.

Question: What about the Max fluorescent intensity (MDA-MB-468 cell line; MDA-MB-468 cell line, fluorescent antibody to MMAE) of the same compound?
Answer: The Max fluorescent intensity was 13.34.

Question: And the Kd (MDA-MB-468 cell line; MDA-MB-468 cell line, historical data, read-out: Historical Kd)?
Answer: Its Kd is 5.18 nM.

Question: What about the Kd (MDA-MB-468 cell line; MDA-MB-468 cell line, read-out: Kd) of the same compound?
Answer: Its Kd is 3.52 nM.

Question: And the “retention on the cells (in words)” value (MDA-MB-468 cell line; detection by a fluorescent antibody to MMAE)?
Answer: The value was “retained on the cells”.

Question: And the TGI (Panc2.13 xenograft; 3 mg/kg biw, day 14)?
Answer: Its TGI is 79.1%.

Question: What about the “Tumor volume (TV)” value (Panc2.13 xenograft; 3 mg/kg biw, day 14) of the same compound?
Answer: The value was 231 mm^3.

Question: What about the TGI (Panc2.13 xenograft; 3 mg/kg qw, day 14) of the same compound?
Answer: The TGI was 69.2%.

Question: And the “Tumor volume (TV)” value (Panc2.13 xenograft; 3 mg/kg qw, day 14)?
Answer: The value was 271 mm^3.

Question: And the TGI (Panc2.13 xenograft; 5 mg/kg qw, day 14)?
Answer: The TGI was 77.5%.

Question: And the “Tumor volume (TV)” value (Panc2.13 xenograft; 5 mg/kg qw, day 14)?
Answer: The value was 238 mm^3.

Question: What about the Tumor volume (Panc2.13 xenograft; 3 mpk, biw, iv, day 0 after start of treatment) of the same compound?
Answer: The Tumor volume was 148 ± 46 mm^3.

Question: What about the Tumor volume (Panc2.13 xenograft; 3 mpk, biw, iv, day 2) of the same compound?
Answer: Its Tumor volume is 170 ± 38 mm^3.

Question: What about the Tumor volume (Panc2.13 xenograft; 3 mpk, biw, iv, day 4) of the same compound?
Answer: Its Tumor volume is 204 ± 57 mm^3.

Question: What about the Tumor volume (Panc2.13 xenograft; 3 mpk, biw, iv, day 7) of the same compound?
Answer: Its Tumor volume is 216 ± 56 mm^3.

Question: What about the Tumor volume (Panc2.13 xenograft; 3 mpk, biw, iv, day 9) of the same compound?
Answer: The Tumor volume was 236 ± 59 mm^3.

Question: And the Tumor volume (Panc2.13 xenograft; 3 mpk, biw, iv, day 11)?
Answer: Its Tumor volume is 241 ± 60 mm^3.

Question: What about the Tumor volume (Panc2.13 xenograft; 3 mpk, biw, iv, day 14) of the same compound?
Answer: The Tumor volume was 231 ± 57 mm^3.

Question: And the T/C (Panc2.13 xenograft; 3 mpk, biw, day 14)?
Answer: Its T/C is 42.3%.

Question: And the TGI (Panc2.13 xenograft; 3 mpk, biw, day 14)?
Answer: The TGI was 79.1%.

Question: And the “Tumor volume” value (Panc2.13 xenograft; 3 mpk, biw, day 14, Mean ± SEM (Table 19))?
Answer: Its value is 231 ± 57 mm^3.

Question: What about the Tumor volume (Panc2.13 xenograft; 3 mpk, qw, iv, day 0 after start of treatment) of the same compound?
Answer: Its Tumor volume is 149 ± 34 mm^3.

Question: And the Tumor volume (Panc2.13 xenograft; 3 mpk, qw, iv, day 2)?
Answer: Its Tumor volume is 160 ± 33 mm^3.

Question: What about the Tumor volume (Panc2.13 xenograft; 3 mpk, qw, iv, day 4) of the same compound?
Answer: Its Tumor volume is 191 ± 39 mm^3.

Question: And the Tumor volume (Panc2.13 xenograft; 3 mpk, qw, iv, day 7)?
Answer: Its Tumor volume is 215 ± 53 mm^3.

Question: What about the Tumor volume (Panc2.13 xenograft; 3 mpk, qw, iv, day 9) of the same compound?
Answer: Its Tumor volume is 242 ± 62 mm^3.

Question: And the Tumor volume (Panc2.13 xenograft; 3 mpk, qw, iv, day 11)?
Answer: Its Tumor volume is 259 ± 59 mm^3.

Question: And the Tumor volume (Panc2.13 xenograft; 3 mpk, qw, iv, day 14)?
Answer: Its Tumor volume is 271 ± 54 mm^3.

Question: What about the T/C (Panc2.13 xenograft; 3 mpk, qw, day 14) of the same compound?
Answer: Its T/C is 49.6%.

Question: What about the TGI (Panc2.13 xenograft; 3 mpk, qw, day 14) of the same compound?
Answer: The TGI was 69.2%.

Question: What about the “Tumor volume” value (Panc2.13 xenograft; 3 mpk, qw, day 14, Mean ± SEM (Table 19)) of the same compound?
Answer: The value was 271 ± 54 mm^3.

Question: And the Tumor volume (Panc2.13 xenograft; 5 mpk, qw, iv, day 0 after start of treatment)?
Answer: Its Tumor volume is 149 ± 18 mm^3.

Question: What about the Tumor volume (Panc2.13 xenograft; 5 mpk, qw, iv, day 2) of the same compound?
Answer: The Tumor volume was 180 ± 11 mm^3.

Question: And the Tumor volume (Panc2.13 xenograft; 5 mpk, qw, iv, day 4)?
Answer: The Tumor volume was 231 ± 33 mm^3.

Question: And the Tumor volume (Panc2.13 xenograft; 5 mpk, qw, iv, day 7)?
Answer: Its Tumor volume is 242 ± 34 mm^3.

Question: What about the Tumor volume (Panc2.13 xenograft; 5 mpk, qw, iv, day 9) of the same compound?
Answer: The Tumor volume was 248 ± 40 mm^3.

Question: What about the Tumor volume (Panc2.13 xenograft; 5 mpk, qw, iv, day 11) of the same compound?
Answer: The Tumor volume was 231 ± 37 mm^3.

Question: What about the Tumor volume (Panc2.13 xenograft; 5 mpk, qw, iv, day 14) of the same compound?
Answer: The Tumor volume was 238 ± 40 mm^3.

Question: And the T/C (Panc2.13 xenograft; 5 mpk, qw, day 14)?
Answer: The T/C was 43.6%.

Question: What about the TGI (Panc2.13 xenograft; 5 mpk, qw, day 14) of the same compound?
Answer: The TGI was 77.5%.

Question: What about the “Tumor volume” value (Panc2.13 xenograft; 5 mpk, qw, day 14, Mean ± SEM (Table 19)) of the same compound?
Answer: Its value is 238 ± 40 mm^3.

Question: What about the “anti-tumour activity (in words)” value (Panc2.13 xenograft; mouse, in vivo) of the same compound?
Answer: Its value is “good anti-tumour activity”.

Question: And the “binding to human Nectin-4 in the SPR binding assay (in words)” value (human Nectin-4)?
Answer: Its value is “excellent binding”.

Question: And the Kd (human Nectin-4; read-out: Human SPR Kd, bicyclic drug conjugates (Table 4))?
Answer: Its Kd is 5.12 nM.

Question: What about the “efficacy (in words)” value (CTG-1171) of the same compound?
Answer: The value was “excellent efficacy evoking tumor regression”.

Question: What about the “efficacy (in words)” value (CTG-0896) of the same compound?
Answer: Its value is “excellent efficacy evoking tumor regression”.

Question: What about the “efficacy (in words)” value (CTG-1771) of the same compound?
Answer: Its value is “excellent efficacy evoking tumor regression”.

Question: What about the “efficacy (in words)” value (CTG-1106) of the same compound?
Answer: The value was “excellent efficacy evoking tumor regression”.

Question: What about the “efficacy (in words)” value (LU-01-0007 PDX; 1 mg/kg qw) of the same compound?
Answer: The value was “stable disease”.

Question: What about the “tumor regrowth (in words)” value (LU-01-0007 PDX; 3 mg/kg, after dosing ceased, out to 126 days post study start) of the same compound?
Answer: The value was “no tumor regrowth”.

Question: What about the “efficacy (in words)” value (LU-01-0007 PDX; 3 mg/kg, dosing maintained out to day 56) of the same compound?
Answer: The value was “full regression”.

Reference: patent US12459974B2, “Bicyclic peptide ligands specific for Nectin-4” (priority 2018, dated 2025)
